target: T1, Human complement C1s enzyme (Homo sapiens, UniProt P09871); assay: Human C1s enzyme assay; assay type: biochemical; conditions: human complement C1s enzyme 1.16 nM, substrate Z-L-Lys-SBzl 100 μM, 5 min preincubation; read-out: IC50 (Stars), C1s Inhibiting Activity
T1 sequence (P09871 438-688 limits assumed): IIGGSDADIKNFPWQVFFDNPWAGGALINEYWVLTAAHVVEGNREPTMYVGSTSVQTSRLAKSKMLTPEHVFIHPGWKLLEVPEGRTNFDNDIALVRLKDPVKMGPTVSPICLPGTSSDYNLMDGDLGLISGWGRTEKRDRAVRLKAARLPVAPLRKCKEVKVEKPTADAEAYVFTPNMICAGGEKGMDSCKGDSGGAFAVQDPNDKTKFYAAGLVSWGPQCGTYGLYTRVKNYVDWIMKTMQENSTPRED
T1 sequence (P09871 16-437 partner limits assumed): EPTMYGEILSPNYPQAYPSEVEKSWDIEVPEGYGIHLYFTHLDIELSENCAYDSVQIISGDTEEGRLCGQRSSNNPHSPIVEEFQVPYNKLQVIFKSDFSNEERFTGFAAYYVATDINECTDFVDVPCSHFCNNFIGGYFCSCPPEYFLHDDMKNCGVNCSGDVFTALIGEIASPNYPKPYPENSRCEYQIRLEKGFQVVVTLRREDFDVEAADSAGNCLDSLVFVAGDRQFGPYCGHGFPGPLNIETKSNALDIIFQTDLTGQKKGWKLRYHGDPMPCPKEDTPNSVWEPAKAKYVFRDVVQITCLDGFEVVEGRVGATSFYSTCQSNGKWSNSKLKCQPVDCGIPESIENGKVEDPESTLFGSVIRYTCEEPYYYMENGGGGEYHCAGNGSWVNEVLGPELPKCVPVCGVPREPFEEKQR
Outline: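 Serum-purified human C1s (1.16 nM final) preincubated 5 min at room temperature with compound in 50 mM Tris, 1 M NaCl, pH 7.5. Z-L-Lys-SBzl and DTNB added at 100 μM each; A405 followed every 30 s for 30 min, and IC50 obtained by nonlinear regression of reaction rates.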

| Structure (SMILES) | IC50 [nM] |
| --- | --- |
| O=C(NCc1cc2cnccc2[nH]1)[C@@H]1CC2(CN1C(=O)CN1Cc3cc(-c4ccc(F)cc4F)ccc3C1=O)OCCO2 [Compound 120, (S)-N-((1H-pyrrolo[3,2-c]pyridin-2-yl)methyl)-7-(2-(5-(2,4-difluorophenyl)-1-oxoisoindolin-2-yl)acetyl)-1,4-dioxa-7-azaspiro[4.4]nonane-8-carboxamide] | < 100 |
| O=C(NCc1cc2cnccc2[nH]1)[C@@H]1CC2(CN1C(=O)CN1Cc3cc(-c4ccc(F)cc4)ccc3C1=O)OCCO2 [Compound 121, (S)-N-((1H-pyrrolo[3,2-c]pyridin-2-yl)methyl)-7-(2-(5-(4-fluorophenyl)-1-oxoisoindolin-2-yl)acetyl)-1,4-dioxa-7-azaspiro[4.4]nonane-8-carboxamide] | 100 to 1000 |
| C[C@@H](NC(=O)[C@@H]1CC2(CN1C(=O)CN1Cc3cc(-c4ccc(F)cc4F)ccc3C1=O)OCCO2)c1cc2cnccc2[nH]1 [Compound 122, (S)-N-((R)-1-(1H-pyrrolo[3,2-c]pyridin-2-yl)ethyl)-7-(2-(5-(2,4-difluorophenyl)-1-oxoisoindolin-2-yl)acetyl)-1,4-dioxa-7-azaspiro[4.4]nonane-8-carboxamide] | 100 to 1000 |
| C[C@@H](NC(=O)[C@@H]1CC2(CN1C(=O)CN1Cc3cc(-c4ccc(F)cc4)ccc3C1=O)OCCO2)c1cc2cnccc2[nH]1 [Compound 123, (S)-N-((R)-1-(1H-pyrrolo[3,2-c]pyridin-2-yl)ethyl)-7-(2-(5-(4-fluorophenyl)-1-oxoisoindolin-2-yl)acetyl)-1,4-dioxa-7-azaspiro[4.4]nonane-8-carboxamide] | 100 to 1000 |
| C[C@@H](NC(=O)[C@@H]1C[C@@H](OC(F)F)CN1C(=O)CN1Cc2cc(-c3ccc(F)cc3Cl)ccc2C1=O)c1cc2cnccc2[nH]1 [Compound 124, (2S,4R)-N-((R)-1-(1H-pyrrolo[3,2-c]pyridin-2-yl)ethyl)-1-(2-(5-(2-chloro-4-fluorophenyl)-1-oxoisoindolin-2-yl)acetyl)-4-(difluoromethoxy)pyrrolidine-2-carboxamide] | < 100 |
| O=C(NCc1cc2cnccc2[nH]1)[C@@H]1CC2(CN1C(=O)CN1Cc3ccc(-c4ccc(F)cc4F)cc3C1=O)OCCO2 [Compound 125, (S)-N-((1H-pyrrolo[3,2-c]pyridin-2-yl)methyl)-7-(2-(6-(2,4-difluorophenyl)-1-oxoisoindolin-2-yl)acetyl)-1,4-dioxa-7-azaspiro[4.4]nonane-8-carboxamide] | < 100 |
| C[C@@H](NC(=O)[C@@H]1CC2(CN1C(=O)CN1Cc3ccc(-c4ccc(F)cc4F)cc3C1=O)OCCO2)c1cc2cnccc2[nH]1 [Compound 126, (S)-N-((R)-1-(1H-pyrrolo[3,2-c]pyridin-2-yl)ethyl)-7-(2-(6-(2,4-difluorophenyl)-1-oxoisoindolin-2-yl)acetyl)-1,4-dioxa-7-azaspiro[4.4]nonane-8-carboxamide] | < 100 |
| O=C(NCC(=O)N1C[C@H](OC(F)F)C[C@H]1C(=O)NCc1cc2cnccc2[nH]1)c1cccc(Oc2ccccc2)c1 [Compound 127, (2S,4R)-N-((1H-pyrrolo[3,2-c]pyridin-2-yl)methyl)-4-(difluoromethoxy)-1-((3-phenoxybenzoyl)glycyl)pyrrolidine-2-carboxamide] | < 100 |
| O=C(NCC(=O)N1C[C@H](OC(F)F)C[C@H]1C(=O)N[C@@H](CO)c1cc2cnccc2[nH]1)c1ccc2c(c1)-c1ccccc1C2(F)F [Compound 128, (2S,4R)-1-((9,9-difluoro-9H-fluorene-3-carbonyl)glycyl)-4-(difluoromethoxy)-N-((R)-2-hydroxy-1-(1H-pyrrolo[3,2-c]pyridin-2-yl)ethyl) pyrrolidine-2-carboxamide] | > 1000 |
| C[C@@]12C[C@@H]1N(C(=O)CN1Cc3cc(-c4ccc(F)cc4F)ccc3C1=O)[C@H](C(=O)NCc1cc3cnccc3[nH]1)C2 [Compound 129, (1S,3S,5S)-N-((1H-pyrrolo[3,2-c]pyridin-2-yl)methyl)-2-(2-(5-(2,4-difluorophenyl)-1-oxoisoindolin-2-yl)acetyl)-5-methyl-2-azabicyclo[3.1.0]hexane-3-carboxamide] | < 100 |
| C[C@@H](NC(=O)[C@@H]1C[C@]2(C)C[C@@H]2N1C(=O)CNC(=O)c1ccc2c(c1)Oc1ccccc1S2)c1cc2cnccc2[nH]1 [Compound 130, (1S,3S,5S)-N-((R)-1-(1H-pyrrolo[3,2-c]pyridin-2-yl)ethyl)-5-methyl-2-((phenoxathiine-3-carbonyl)glycyl)-2-azabicyclo[3.1.0]hexane-3-carboxamide] | < 100 |
| C[C@@H](NC(=O)[C@@H]1CC2(CCCC2)CN1C(=O)CNC(=O)c1ccc2c(c1)Oc1ccccc1S2)c1cc2cnccc2[nH]1 [Compound 131, (S)-N-((R)-1-(1H-pyrrolo[3,2-c]pyridin-2-yl)ethyl)-2-((phenoxathiine-3-carbonyl)glycyl)-2-azaspiro[4.4]nonane-3-carboxamide] | < 100 |
| COC[C@H]1C[C@@H](C(=O)N[C@H](C)c2cc3cnccc3[nH]2)N(C(=O)CNC(=O)c2ccc3c(c2)Oc2ccccc2S3)C1 [Compound 132, (2S,4S)-N-((R)-1-(1H-pyrrolo[3,2-c]pyridin-2-yl)ethyl)-4-(methoxymethyl)-1-((phenoxathiine-3-carbonyl)glycyl)pyrrolidine-2-carboxamide] | < 100 |
| CC(C)S(=O)(=O)[C@@H]1C[C@@H](C(=O)N[C@H](C)c2cc3cnccc3[nH]2)N(C(=O)CNC(=O)c2ccc3c(c2)Oc2ccccc2S3)C1 [Compound 133, (2S,4R)-N-((R)-1-(1H-pyrrolo[3,2-c]pyridin-2-yl)ethyl)-4-(isopropylsulfonyl)-1-((phenoxathiine-3-carbonyl)glycyl)pyrrolidine-2-carboxamide] | < 100 |
| C[C@@H](NC(=O)[C@@H]1C[C@@H](OC(F)F)CN1C(=O)CNC(=O)c1cccc2c1-c1ccccc1C2(F)F)c1cc2cnccc2[nH]1 [Compound 134, (2S,4R)-N-((R)-1-(1H-pyrrolo[3,2-c]pyridin-2-yl)ethyl)-1-((9,9-difluoro-9H-fluorene-4-carbonyl)glycyl)-4-(difluoromethoxy)pyrrolidine-2-carboxamide] | > 1000 |

The next lines start with the values.

| IC50 [nM] | Structure (SMILES) |
| --- | --- |
| > 1000 | O=C(NCc1cc2cnccc2[nH]1)[C@@H]1C[C@@H](OC(F)F)CN1C(=O)CN1Cc2ncc(-c3ccc(F)cc3F)cc2C1=O [Compound 135, (2S,4R)-N-((1H-pyrrolo[3,2-c]pyridin-2-yl)methyl)-4-(difluoromethoxy)-1-(2-(3-(2,4-difluorophenyl)-5-oxo-5,7-dihydro-6H-pyrrolo[3,4-b]pyridin-6-yl)acetyl)pyrrolidine-2-carboxamide] |
| 100 to 1000 | C[C@@]12C[C@@H]1N(C(=O)CNC(=O)c1ccc(Oc3ccccc3)cn1)[C@H](C(=O)NCc1cc3cnccc3[nH]1)C2 [Compound 136, (1S,3S,5S)-N-((1H-pyrrolo[3,2-c]pyridin-2-yl)methyl)-5-methyl-2-((5-phenoxypicolinoyl)glycyl)-2-azabicyclo[3.1.0]hexane-3-carboxamide] |
| < 100 | O=C(NCC(=O)N1C[C@H](OC(F)F)C[C@H]1C(=O)NCc1cc2cnccc2[nH]1)c1ccc(Oc2ccccc2)cn1 [Compound 137, N-(2-((2S,4R)-2-(((1H-pyrrolo[3,2-c]pyridin-2-yl)methyl)carbamoyl)-4-(difluoromethoxy)pyrrolidin-1-yl)-2-oxoethyl)-5-phenoxypicolinamide] |
| > 1000 | O=C(NCc1cc2cnccc2[nH]1)[C@@H]1C[C@@H](OC(F)F)CN1C(=O)CN1Cc2ncc(-c3ccc(F)cc3)cc2C1=O [Compound 138, (2S,4R)-N-((1H-pyrrolo[3,2-c]pyridin-2-yl)methyl)-4-(difluoromethoxy)-1-(2-(3-(4-fluorophenyl)-5-oxo-5,7-dihydro-6H-pyrrolo[3,4-b]pyridin-6-yl)acetyl)pyrrolidine-2-carboxamide] |
| 100 to 1000 | C[C@@]12C[C@@H]1N(C(=O)CNC(=O)c1ccc(Oc3ccc(C(F)(F)F)cc3)cc1)[C@H](C(=O)NCc1cc3cnccc3[nH]1)C2 [Compound 139, (1S,3S,5S)-N-((1H-pyrrolo[3,2-c]pyridin-2-yl)methyl)-5-methyl-2-((4-(4-(trifluoromethyl)phenoxy)benzoyl)glycyl)-2-azabicyclo[3.1.0]hexane-3-carboxamide] |
| < 100 | O=C(NCC(=O)N1C[C@H](OC(F)F)C[C@H]1C(=O)NCc1cc2cnccc2s1)c1ccc2c(c1)Oc1ccccc1S2 [Compound 141, (2S,4R)-4-(difluoromethoxy)-1-((phenoxathiine-3-carbonyl)glycyl)-N-(thieno[3,2-c]pyridin-2-ylmethyl)pyrrolidine-2-carboxamide] |
| < 100 | Cc1cc(C(=O)NCC(=O)N2C[C@H](OC(F)F)C[C@H]2C(=O)N[C@H](C)c2cc3cnccc3[nH]2)ccc1Oc1ccc(F)cc1 [Compound 143, (2S,4R)-N-((R)-1-(1H-pyrrolo[3,2-c]pyridin-2-yl)ethyl)-4-(difluoromethoxy)-1-((4-(4-fluorophenoxy)-3-methylbenzoyl)glycyl)pyrrolidine-2-carboxamide] |
